ChEMBL document CHEMBL1681678, “Discovery of β-aminoacyl containing thiazolidine derivatives as potent and selective dipeptidyl peptidase IV inhibitors” (Bioorg Med Chem Lett, 2011)
Each block holds one compound with its values, some of them ahead of it.

How the values were obtained:
[1] = biological target: Voltage-gated inwardly rectifying potassium channel KCNH2 (Homo sapiens, UniProt Q12809); experiment: Binding affinity to human ERG
Aminopeptidase N = Aminopeptidase N (Homo sapiens, UniProt P15144); experiment: Inhibition of APN
Dipeptidyl peptidase 2 = Dipeptidyl peptidase 2 (Rattus norvegicus, UniProt Q9EPB1); experiment: Inhibition of rat DPP2 expressed in african green monkey COS7 cells after 60 mins by fluorescence plate reader; assay type: cell-based, COS-7
[2] = Metabolic stability in human liver microsomes assessed as compound remaining after 1 hr; assay type: ADME, Microsome; details: read-out: Stability
HepG2 = experiment: Cytotoxicity against human HepG2 cells at 100 uM; assay type: cell-based; details: hepg2, 100 µM
CYP2C9 = CYP2C9 (Homo sapiens, UniProt P11712); experiment: Inhibition of CYP2C9 at 10 uM; assay type: ADME
CYP1A2 = biological target: T1, CYP1A2 (Homo sapiens, UniProt P05177); experiment: Inhibition of CYP1A2 at 10 uM; assay type: ADME
T1 sequence (P05177 whole entry): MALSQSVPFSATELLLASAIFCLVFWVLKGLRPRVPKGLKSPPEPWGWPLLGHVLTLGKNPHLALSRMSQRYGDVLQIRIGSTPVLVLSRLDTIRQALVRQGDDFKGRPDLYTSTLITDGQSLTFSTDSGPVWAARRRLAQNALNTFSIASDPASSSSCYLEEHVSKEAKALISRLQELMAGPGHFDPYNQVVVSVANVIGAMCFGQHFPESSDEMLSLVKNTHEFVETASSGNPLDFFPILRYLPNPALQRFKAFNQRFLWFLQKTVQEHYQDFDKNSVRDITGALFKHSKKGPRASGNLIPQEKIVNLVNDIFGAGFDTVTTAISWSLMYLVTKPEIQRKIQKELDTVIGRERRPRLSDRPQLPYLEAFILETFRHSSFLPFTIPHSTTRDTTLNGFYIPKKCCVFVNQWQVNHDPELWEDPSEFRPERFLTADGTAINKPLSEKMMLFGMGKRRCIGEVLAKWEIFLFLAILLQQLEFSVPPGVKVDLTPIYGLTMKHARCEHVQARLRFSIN

CYP3A4 = CYP3A4 (Homo sapiens, UniProt P08684); experiment: Inhibition of CYP3A4 at 10 uM; assay type: ADME
CYP2D6 = CYP2D6 (Homo sapiens, UniProt P10635); experiment: Inhibition of CYP2D6 at 10 uM; assay type: ADME
[3] = Cytotoxicity against human WI38 cells at 100 uM; assay type: cell-based; details: wi-38, 100 µM
[4] = Inhibition of trypsin
Prolyl endopeptidase = biological target: T2, Prolyl endopeptidase (Rattus norvegicus, UniProt O70196); experiment: Inhibition of POP in rat brain cortex; assay type: tissue-based
T2 sequence (O70196 whole entry): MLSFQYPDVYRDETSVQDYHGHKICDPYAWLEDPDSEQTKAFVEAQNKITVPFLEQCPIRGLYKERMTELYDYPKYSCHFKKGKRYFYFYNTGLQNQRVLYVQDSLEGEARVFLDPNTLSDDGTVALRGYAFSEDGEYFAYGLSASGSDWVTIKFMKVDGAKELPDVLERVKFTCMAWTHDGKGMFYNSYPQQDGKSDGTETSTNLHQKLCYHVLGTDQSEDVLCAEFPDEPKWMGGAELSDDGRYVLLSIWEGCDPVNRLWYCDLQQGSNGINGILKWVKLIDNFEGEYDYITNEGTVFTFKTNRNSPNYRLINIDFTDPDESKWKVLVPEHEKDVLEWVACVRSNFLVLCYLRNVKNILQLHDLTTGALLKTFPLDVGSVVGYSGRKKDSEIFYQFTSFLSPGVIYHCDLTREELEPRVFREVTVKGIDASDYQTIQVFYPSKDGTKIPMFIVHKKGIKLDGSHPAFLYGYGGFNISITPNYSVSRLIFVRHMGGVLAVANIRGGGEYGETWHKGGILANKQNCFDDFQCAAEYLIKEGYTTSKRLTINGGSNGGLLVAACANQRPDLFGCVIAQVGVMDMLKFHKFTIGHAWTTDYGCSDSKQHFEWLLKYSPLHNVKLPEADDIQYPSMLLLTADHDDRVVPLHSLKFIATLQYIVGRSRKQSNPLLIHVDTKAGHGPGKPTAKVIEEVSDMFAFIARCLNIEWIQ

[5] = Metabolic stability in rat liver microsomes assessed as compound remaining after 1 hr; assay type: ADME, Microsome; details: read-out: Stability
[6] = Chemical stability of the compound in buffer solution assessed as compound remaining at pH 1 to 9 after 24 hrs; assay type: physicochemical; details: read-out: Stability
CYP2C19 = CYP2C19 (Homo sapiens, UniProt P33261); experiment: Inhibition of CYP2C19 at 10 uM; assay type: ADME
[7] = Inhibition of elastase
Canis familiaris [8] = experiment: Inhibition of DPP4 in Beagle dog plasma at 3 mg/kg, po after 4 hrs; assay type: functional; details: Canis lupus familiaris
Canis familiaris [9] = experiment: Inhibition of DPP4 in Beagle dog plasma at 3 mg/kg, po after 1 hr; assay type: functional; details: Canis lupus familiaris
Canis familiaris [10] = experiment: Inhibition of DPP4 in Beagle dog plasma at 3 mg/kg, po after 24 hrs; assay type: functional; details: Canis lupus familiaris
Rattus norvegicus [11] = experiment: Inhibition of DPP4 in CD rat plasma at 10 mg/kg, po after 12 hrs; assay type: functional
Canis familiaris [12] = experiment: Inhibition of DPP4 in Beagle dog plasma at 3 mg/kg, po after 12 hrs; assay type: functional; details: Canis lupus familiaris
Rattus norvegicus [13] = experiment: Inhibition of DPP4 in CD rat plasma at 10 mg/kg, po after 8 hrs; assay type: functional
Rattus norvegicus [14] = experiment: Inhibition of DPP4 in CD rat plasma at 10 mg/kg, po after 1 hr; assay type: functional

Dipeptidyl peptidase 2, sequence (Q9EPB1 whole entry): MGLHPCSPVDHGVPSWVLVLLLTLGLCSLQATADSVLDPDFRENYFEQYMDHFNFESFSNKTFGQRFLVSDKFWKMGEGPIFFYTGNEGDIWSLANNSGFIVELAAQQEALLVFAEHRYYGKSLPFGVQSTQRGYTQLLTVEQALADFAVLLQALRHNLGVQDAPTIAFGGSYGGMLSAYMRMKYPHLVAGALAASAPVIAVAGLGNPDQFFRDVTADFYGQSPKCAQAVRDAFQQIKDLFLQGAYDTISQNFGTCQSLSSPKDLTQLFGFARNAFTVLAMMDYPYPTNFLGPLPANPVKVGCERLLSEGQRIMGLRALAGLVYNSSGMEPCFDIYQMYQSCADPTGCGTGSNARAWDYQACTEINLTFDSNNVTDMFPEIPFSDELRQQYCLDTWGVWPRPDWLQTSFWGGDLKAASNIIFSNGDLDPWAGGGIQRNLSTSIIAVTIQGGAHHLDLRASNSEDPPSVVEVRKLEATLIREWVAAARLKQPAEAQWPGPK
CYP2C9, sequence (P11712 whole entry): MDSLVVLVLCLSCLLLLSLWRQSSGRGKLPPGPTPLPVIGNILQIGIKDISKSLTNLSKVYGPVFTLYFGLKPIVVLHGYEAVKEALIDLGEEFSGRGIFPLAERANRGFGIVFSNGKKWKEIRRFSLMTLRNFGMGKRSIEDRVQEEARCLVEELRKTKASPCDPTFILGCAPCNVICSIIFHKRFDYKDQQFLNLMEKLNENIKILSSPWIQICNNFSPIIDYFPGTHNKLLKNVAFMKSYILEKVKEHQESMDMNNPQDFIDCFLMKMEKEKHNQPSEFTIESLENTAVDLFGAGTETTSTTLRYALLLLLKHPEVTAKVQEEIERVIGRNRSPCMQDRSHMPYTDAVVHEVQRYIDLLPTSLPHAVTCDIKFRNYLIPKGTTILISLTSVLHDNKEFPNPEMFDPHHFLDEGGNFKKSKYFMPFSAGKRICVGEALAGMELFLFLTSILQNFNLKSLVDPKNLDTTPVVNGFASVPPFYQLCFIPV
CYP2C19, sequence (P33261 whole entry): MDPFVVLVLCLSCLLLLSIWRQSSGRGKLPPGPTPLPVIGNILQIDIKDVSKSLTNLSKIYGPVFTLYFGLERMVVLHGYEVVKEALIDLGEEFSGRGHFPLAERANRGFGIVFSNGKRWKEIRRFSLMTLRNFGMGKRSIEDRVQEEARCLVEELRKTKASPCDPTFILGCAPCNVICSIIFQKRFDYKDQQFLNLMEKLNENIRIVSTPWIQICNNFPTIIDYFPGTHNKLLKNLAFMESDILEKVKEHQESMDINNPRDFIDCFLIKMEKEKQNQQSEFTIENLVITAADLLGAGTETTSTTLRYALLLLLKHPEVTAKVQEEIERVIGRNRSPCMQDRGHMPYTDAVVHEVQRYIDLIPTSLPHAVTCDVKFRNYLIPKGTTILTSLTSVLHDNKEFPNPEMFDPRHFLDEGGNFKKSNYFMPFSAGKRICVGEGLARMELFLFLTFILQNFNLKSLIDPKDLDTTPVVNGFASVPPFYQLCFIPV
Voltage-gated inwardly rectifying potassium channel KCNH2, sequence (Q12809 whole entry): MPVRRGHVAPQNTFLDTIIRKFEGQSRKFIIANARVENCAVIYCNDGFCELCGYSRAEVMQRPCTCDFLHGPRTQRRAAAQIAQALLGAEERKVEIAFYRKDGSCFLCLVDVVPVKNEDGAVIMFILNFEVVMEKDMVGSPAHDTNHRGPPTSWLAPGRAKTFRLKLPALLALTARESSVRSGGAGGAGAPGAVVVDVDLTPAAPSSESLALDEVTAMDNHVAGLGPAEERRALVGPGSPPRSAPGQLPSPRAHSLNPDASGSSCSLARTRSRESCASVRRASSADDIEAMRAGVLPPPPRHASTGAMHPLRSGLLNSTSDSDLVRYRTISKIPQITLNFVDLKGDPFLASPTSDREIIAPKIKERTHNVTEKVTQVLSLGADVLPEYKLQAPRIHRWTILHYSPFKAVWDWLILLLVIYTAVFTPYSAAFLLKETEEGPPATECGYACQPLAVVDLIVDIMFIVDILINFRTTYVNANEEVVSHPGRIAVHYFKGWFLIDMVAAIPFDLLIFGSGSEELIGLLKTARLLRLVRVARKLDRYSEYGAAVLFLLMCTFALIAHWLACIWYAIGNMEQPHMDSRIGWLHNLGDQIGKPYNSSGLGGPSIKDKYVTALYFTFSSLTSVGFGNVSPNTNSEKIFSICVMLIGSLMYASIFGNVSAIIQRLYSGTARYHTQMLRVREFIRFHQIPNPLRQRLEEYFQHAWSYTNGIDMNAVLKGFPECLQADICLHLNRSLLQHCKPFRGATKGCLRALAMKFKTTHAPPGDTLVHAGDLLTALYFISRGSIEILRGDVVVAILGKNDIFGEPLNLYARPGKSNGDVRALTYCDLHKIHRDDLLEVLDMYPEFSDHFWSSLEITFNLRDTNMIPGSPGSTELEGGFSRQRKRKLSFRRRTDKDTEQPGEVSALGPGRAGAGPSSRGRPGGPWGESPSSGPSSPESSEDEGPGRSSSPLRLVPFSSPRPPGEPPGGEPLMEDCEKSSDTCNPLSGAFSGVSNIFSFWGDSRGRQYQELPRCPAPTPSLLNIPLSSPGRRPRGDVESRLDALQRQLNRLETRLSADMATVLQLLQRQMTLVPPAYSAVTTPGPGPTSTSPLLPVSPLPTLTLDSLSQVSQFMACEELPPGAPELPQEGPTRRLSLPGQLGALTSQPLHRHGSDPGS
Aminopeptidase N, sequence (P15144 whole entry): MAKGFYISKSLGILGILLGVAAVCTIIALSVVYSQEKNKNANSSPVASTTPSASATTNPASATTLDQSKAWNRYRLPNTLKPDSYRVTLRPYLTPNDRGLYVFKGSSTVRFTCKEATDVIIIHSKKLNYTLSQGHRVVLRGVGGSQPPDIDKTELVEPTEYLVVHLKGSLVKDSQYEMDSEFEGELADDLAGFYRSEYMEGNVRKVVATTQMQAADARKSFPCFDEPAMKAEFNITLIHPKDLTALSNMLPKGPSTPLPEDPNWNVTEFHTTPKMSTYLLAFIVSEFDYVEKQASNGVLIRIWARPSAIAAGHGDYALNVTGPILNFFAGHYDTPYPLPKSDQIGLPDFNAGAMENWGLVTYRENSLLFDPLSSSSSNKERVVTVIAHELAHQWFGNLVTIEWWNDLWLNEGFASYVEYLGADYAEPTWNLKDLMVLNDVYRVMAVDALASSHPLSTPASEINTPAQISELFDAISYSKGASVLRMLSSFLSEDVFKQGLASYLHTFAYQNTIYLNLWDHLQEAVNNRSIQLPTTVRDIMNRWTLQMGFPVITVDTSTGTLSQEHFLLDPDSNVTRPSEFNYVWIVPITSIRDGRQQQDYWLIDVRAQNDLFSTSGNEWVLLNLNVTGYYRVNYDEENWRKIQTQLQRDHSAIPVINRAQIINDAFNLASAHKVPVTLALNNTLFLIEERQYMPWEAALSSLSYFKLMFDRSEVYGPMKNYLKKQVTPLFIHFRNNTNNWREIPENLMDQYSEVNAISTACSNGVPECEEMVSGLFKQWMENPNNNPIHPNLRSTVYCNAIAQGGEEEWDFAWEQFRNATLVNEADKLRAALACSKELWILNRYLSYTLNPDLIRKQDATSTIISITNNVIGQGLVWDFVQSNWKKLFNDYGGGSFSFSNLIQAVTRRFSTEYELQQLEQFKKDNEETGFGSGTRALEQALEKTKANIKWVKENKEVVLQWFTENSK
CYP3A4, sequence (P08684 whole entry): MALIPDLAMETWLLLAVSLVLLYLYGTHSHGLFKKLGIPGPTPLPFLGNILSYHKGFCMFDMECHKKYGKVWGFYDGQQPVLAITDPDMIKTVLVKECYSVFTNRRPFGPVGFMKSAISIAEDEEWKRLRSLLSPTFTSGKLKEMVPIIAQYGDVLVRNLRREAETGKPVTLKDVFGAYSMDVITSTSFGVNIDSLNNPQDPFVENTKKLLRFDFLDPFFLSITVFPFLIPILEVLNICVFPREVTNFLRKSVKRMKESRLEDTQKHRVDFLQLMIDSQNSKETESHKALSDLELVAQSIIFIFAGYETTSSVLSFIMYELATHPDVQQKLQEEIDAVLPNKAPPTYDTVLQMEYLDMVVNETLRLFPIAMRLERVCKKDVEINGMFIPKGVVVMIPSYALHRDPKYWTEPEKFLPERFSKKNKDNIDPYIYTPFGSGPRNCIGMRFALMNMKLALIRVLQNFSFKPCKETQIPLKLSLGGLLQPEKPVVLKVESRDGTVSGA
CYP2D6, sequence (P10635 whole entry): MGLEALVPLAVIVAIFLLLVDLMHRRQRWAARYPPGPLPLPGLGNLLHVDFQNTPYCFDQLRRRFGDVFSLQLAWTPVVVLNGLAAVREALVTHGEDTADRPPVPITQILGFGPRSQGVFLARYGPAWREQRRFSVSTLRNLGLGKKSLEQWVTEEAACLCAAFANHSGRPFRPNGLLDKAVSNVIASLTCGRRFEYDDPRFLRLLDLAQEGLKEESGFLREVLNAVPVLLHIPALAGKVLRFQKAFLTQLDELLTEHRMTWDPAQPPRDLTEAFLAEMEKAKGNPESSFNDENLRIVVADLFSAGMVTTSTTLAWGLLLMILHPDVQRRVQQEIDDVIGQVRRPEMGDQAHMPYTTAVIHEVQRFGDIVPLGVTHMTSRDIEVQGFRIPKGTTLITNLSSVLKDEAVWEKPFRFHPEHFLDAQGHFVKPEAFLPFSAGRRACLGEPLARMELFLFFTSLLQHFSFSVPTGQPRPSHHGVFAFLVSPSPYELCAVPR

IC50 (Aminopeptidase N): > 100 µM
IC50 (Dipeptidyl peptidase 2): > 100 µM
remaining at 1 h [2]: > 90%
inhibition at 10 µM (CYP2C9): 26.8%
inhibition at 10 µM (CYP1A2): 2.9%
inhibition at 10 µM (CYP3A4): 3.5%
inhibition at 10 µM (CYP2D6): 12.2%
IC50 [4]: > 100 µM
IC50 (Prolyl endopeptidase): > 100 µM
remaining at 1 h [5]: > 90%
remaining at 24 h [6]: > 90%
inhibition at 10 µM (CYP2C19): 46.9%
IC50 [7]: > 100 µM
Compound: CC(C)[C@@H](Nc1ccc(CNC(=O)[C@@H]2SCCN2C(=O)C[C@H](N)Cc2cc(F)c(F)cc2F)cc1)C(=O)O.Cl
EC50 [1]: 408 µM
Activity (HepG2): Non-toxic
Activity [3]: Non-toxic

Compound: CCOC(=O)[C@H](Nc1ccc(CNC(=O)[C@@H]2SCCN2C(=O)C[C@H](N)Cc2cc(F)c(F)cc2F)cc1)C(C)C
inhibition in vivo at 3 mg/kg (Canis familiaris [8]): 93%
inhibition in vivo at 3 mg/kg (Canis familiaris [9]): 94%
inhibition in vivo at 3 mg/kg (Canis familiaris [10]): 44%
inhibition in vivo at 10 mg/kg (Rattus norvegicus [11]): 87%
inhibition in vivo at 3 mg/kg (Canis familiaris [12]): 77%
inhibition in vivo at 10 mg/kg (Rattus norvegicus [13]): 92%
inhibition in vivo at 10 mg/kg (Rattus norvegicus [14]): 95%
